Read-outs that look alike come from different tables or passages of the source.
Legend:
[1] = test system: T. cruzi intracellular amastigotes (Tulahuen lacZ strain); assay: Antitrypanosomal assay, intracellular amastigotes in LLC-MK2 cells, CPRG readout; assay type: cell-based, Trypanosoma cruzi; conditions: for IC50: Trypanosoma cruzi, read-out: Amastigote IC50 (μM ± SD); for activity category (active / moderately active / inactive): category by amastigote IC50
Protocol: (§1) The cytotoxicity evaluation and the determination of the selectivity index (SI) were done on LLC-MK2 cells.
Initially, 5 × 10^3 LLC-MK2 cells/well were infected with trypomastigotes in 96-well plates at a parasite/cell ratio of 10:1. After 48 h, plates were washed twice with PBS before adding compounds in a serial dilution range of 100 μM to 0.78 μM in fresh RPMI 1640 medium (Sigma-Aldrich). As a control, infected untreated cells (100% infection control) were employed. Following 72 h of incubation, amastigote viability tests were performed using 50 μL of PBS containing 2% Triton X-100 and 200 μM CPRG. Tulahuen lacZ strain expressing galactosidase enzyme were used, which catalyzes the yellow reagent of CPRG into a red chromophore that can be easily detected by absorbance at 570 nm after 4 h at 37 °C (microplate reader – Synergy H1). The percentage of amastigotes inhibition (IC50) was calculated as 100-(absorbance of treated infected cells)/(absorbance mean of untreated infected cells) × 100.

[2] = Cytotoxicity assay (MTT); assay type: cell-based; conditions: rhesus monkey, LLC-MK2 cells, read-out: LLC-MK2 CC50 (μM ± SD)
Protocol: as §1
To assess chemical cytotoxicity, MTT (3-(4,5-Dimethyl-2-thiazolyl)-2,5-diphenyl-2H-tetrazolium bromide, Sigma-Aldrich)-based kit reagents were employed. LLC-MK2 cells were incubated in 96-well plates for 48 h at a concentration of 5 × 10^3 cells/well. Cells were then washed twice with PBS (Sigma-Aldrich) before being incubated with compounds in a serial dilution from 200 μM to 1.56 μM in fresh RPMI 1640 medium (Sigma-Aldrich). After 72 h, 50 μL of MTT solution (2.0 mg/mL) was added to each well, and the plates were incubated for another 4 h at 37 °C. The resultant formazan crystals were dissolved in DMSO (50 μ L/well) and measured at 570 nm 30 min later in a Synergy H1 microplate reader. Cytotoxic concentration of 50% (CC50) was calculated based on a dose–response curve excluding DMSO cytotoxicity (>1%) of the untreated control.

[3] = test system: T. cruzi amastigote forms; conditions: triazole with diphenyl ether substituent; ref Assunção et al.; read-out: IC50 against T. cruzi amastigote forms; cited from earlier work
[4] = LLC-MK2, T. cruzi intracellular amastigotes, Tulahuen lacZ strain, 72 h incubation
[5] = ratio of amastigote IC50 values

| SMILES | SI, selectivity index: CC50 of LLC-MK2 cells/IC50 of intracellular amastigotes [1] | IC50 [1, 4] [µM] | CC50 at 72 h [2] [µM] | other results |
| --- | --- | --- | --- | --- |
| O=C(Cn1ccnc1[N+](=O)[O-])NCc1ccccc1 [BZN, benznidazole, reference compound] | >17.6 | 5.67 ± 0.83 | > 100 | – |
| O=[N+]([O-])c1nccn1Cc1cn(-c2ccc(Oc3ccccc3)cc2)nn1 [Compound 4b] | – | – | – | IC50 [3]: 6.6 µM |
| O=[N+]([O-])c1nccn1Cc1cc(-c2ccc(Oc3ccccc3)cc2)no1 [Compound 6a, 5-((2-Nitro-1H-imidazol-1-yl)methyl)-3-(4-phenoxyphenyl)isoxazole] | >82.2 | 1.22 ± 0.73 | > 100 | fold more active than the reference drug benznidazole (BZN) [1, 5]: 4.6 fold; fold more active against amastigote forms than its triazole analog ([1]; ratio of amastigote IC50 values, comparator is a literature value): 5.4 fold |
| O=[N+]([O-])c1nccn1Cc1cc(-c2ccc(Oc3ccc(F)cc3)cc2)no1 [Compound 6b, 3-(4-(4-Fluorophenoxy)phenyl)-5-((2-nitro-1H-imidazol-1-yl)methyl)isoxazole] | >199.4 | 0.5 ± 0.51 | > 100 | – |
| O=[N+]([O-])c1nccn1Cc1cc(-c2ccc(Oc3ccc(Cl)cc3)cc2)no1 [Compound 6c, 3-(4-(4-Chlorophenoxy)phenyl)-5-((2-nitro-1H-imidazol-1-yl)methyl)isoxazole] | >99.0 | 1.01 ± 1.13 | > 100 | fold less active than 6b [1, 5]: 2 fold |
| O=[N+]([O-])c1nccn1Cc1cc(-c2ccc(Oc3ccc(Cl)c(Cl)c3)cc2)no1 [Compound 6d, 3-(4-(3,4-Dichlorophenoxy)phenyl)-5-((2-nitro-1H-imidazol-1-yl)methyl)isoxazole] | >35.9 | 2.79 ± 0.93 | > 100 | activity category (active / moderately active / inactive) [1]: active |
| O=[N+]([O-])c1nccn1Cc1cc(-c2ccc(Oc3ccc(OC(F)(F)F)cc3)cc2)no1 [Compound 6e, 5-((2-Nitro-1H-imidazol-1-yl)methyl)-3-(4-(4-(trifluoromethoxy)phenoxy)phenyl)isoxazole] | >80.1 | 1.25 ± 0.71 | > 100 | – |
| Cc1ccc(Oc2ccc(-c3cc(Cn4ccnc4[N+](=O)[O-])on3)cc2)cc1 [Compound 6f, 5-((2-Nitro-1H-imidazol-1-yl)methyl)-3-(4-(P-tolyloxy)phenyl)isoxazole] | >56.5 | 1.77 ± 0.24 | > 100 | – |
| COc1ccc(Oc2ccc(-c3cc(Cn4ccnc4[N+](=O)[O-])on3)cc2)cc1 [Compound 6g, 3-(4-(4-Methoxyphenoxy)phenyl)-5-((2-nitro-1H-imidazol-1-yl)methyl)isoxazole] | >155.3 | 0.64 ± 0.05 | > 100 | – |
| O=[N+]([O-])c1nccn1Cc1cc(-c2ccc(Oc3ccccc3)c(F)c2)no1 [Compound 6h, 3-(3-Fluoro-4-phenoxyphenyl)-5-((2-nitro-1H-imidazol-1-yl)methyl)isoxazole] | >31.4 | 3.18 ± 2.18 | > 100 | activity category (active / moderately active / inactive) [1]: active |
| O=[N+]([O-])c1nccn1Cc1cc(-c2ccc(Oc3ccc(F)cc3)c(F)c2)no1 [Compound 6i, 3-(3-Fluoro-4-(4-fluorophenoxy)phenyl)-5-((2-nitro-1H-imidazol-1-yl)methyl)isoxazole] | >70.4 | 1.42 ± 0.42 | > 100 | fold less active than 6b [1, 5]: 2.8 fold |
| O=[N+]([O-])c1nccn1Cc1cc(-c2ccc(Oc3ccc(Cl)cc3)c(F)c2)no1 [Compound 6j, 3-(4-(4-Chlorophenoxy)-3-fluorophenyl)-5-((2-nitro-1H-imidazol-1-yl)methyl)isoxazole] | >64.1 | 1.56 ± 0.69 | > 100 | – |
| O=[N+]([O-])c1nccn1Cc1cc(-c2ccc(Oc3ccc(Cl)c(Cl)c3)c(F)c2)no1 [Compound 6k, 3-(4-(3,4-Dichlorophenoxy)-3-fluorophenyl)-5-((2-nitro-1H-imidazol-1-yl)methyl)isoxazole] | >11.8 | 8.5 ± 2.06 | > 100 | activity category (active / moderately active / inactive) [1]: moderate activity |
| O=[N+]([O-])c1nccn1Cc1cc(-c2ccc(Oc3ccc(OC(F)(F)F)cc3)c(F)c2)no1 [Compound 6l, 3-(3-Fluoro-4-(4-(trifluoromethoxy)phenoxy)phenyl)-5-((2-nitro-1H-imidazol-1Yl)methyl)isoxazole] | >14.7 | – | – | IC50 ([1]; TULAHUEN, LLC-MK2, 72 h): 3.77 ± 0.07 µM |
| Cc1ccc(Oc2ccc(-c3cc(Cn4ccnc4[N+](=O)[O-])on3)cc2F)cc1 [Compound 6m, 3-(3-Fluoro-4-(P-tolyloxy)phenyl)-5-((2-nitro-1H-imidazol-1-yl)methyl)isoxazole] | >13.5 | 7.41 ± 3.22 | > 100 | fold less active than 6f [1, 5]: 4 fold |
| COc1ccc(Oc2ccc(-c3cc(Cn4ccnc4[N+](=O)[O-])on3)cc2F)cc1 [Compound 6n, 3-(3-Fluoro-4-(4-methoxyphenoxy)phenyl)-5-((2-nitro-1H-imidazol-1-yl)methyl)isoxazole] | >28.2 | 3.54 ± 0.21 | > 100 | fold less activity than 6g [1, 5]: 5.5 fold |
| O=[N+]([O-])c1nccn1Cc1cc(-c2ccc(Sc3ccccc3)cc2)no1 [Compound 6o, 5-((2-Nitro-1H-imidazol-1-yl)methyl)-3-(4-(phenylthio)phenyl)isoxazole] | >4.9 | 20.6 ± 0.98 | > 100 | activity category (active / moderately active / inactive) [1]: moderate activity |
| O=[N+]([O-])c1nccn1Cc1cc(-c2ccc(Sc3ccc(Cl)cc3)cc2)no1 [Compound 6p, 3-(4-((4-Chlorophenyl)thio)phenyl)-5-((2-nitro-1H-imidazol-1-yl)methyl)isoxazole] | >9.0 | 11.1 ± 0.16 | > 100 | – |
| Cc1ccc(Sc2ccc(-c3cc(Cn4ccnc4[N+](=O)[O-])on3)cc2)cc1 [Compound 6q, 5-((2-Nitro-1H-imidazol-1-yl)methyl)-3-(4-(P-tolylthio)phenyl)isoxazole] | >5.8 | 17.1 ± 0.24 | > 100 | activity category (active / moderately active / inactive) [1]: moderate activity |

From article PMC12658631, “Synthesis and Antitrypanosomal Activity of Novel 2‑Nitroimidazole-3,5-Disubstituted Isoxazole Derivatives with Diaryl Ether and Thioether Substituents” (ACS Omega, 2025)
